Test results: BindingDB's records for doi:10.1007/s10822-022-00478-x (Roche Innovation Center Basel, F. Hoffmann-La Roche Ltd., 2022)
pIC50: −log10 of the molar value.

What follows are compounds tested against cAMP and cAMP-inhibited cGMP 3',5'-cyclic phosphodiesterase 10A (Homo sapiens, UniProt Q9Y233) (assay: PDE10A assay).
In short: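 Human PDE10A (2 ng/well) preincubated 15 min RT with compound in HEPES pH 7.5, 10 mM MgCl2, BSA, then reacted 15 min with 50 nM [3H]cGMP/cGMP substrate. Stopped with Y-Si SPA beads; bound radioactivity counted, IC50 from four-parameter logistic, pIC50 = −log10(IC50).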

Point of comparison: Cc1c(Cl)cc(Cl)c2nc(CCc3nccn3C)nn12 [Roche-Dataset for PDE10A, Compound 972], pIC50 6.78. Against it:
- Cn1cc(-c2ccccc2)nc1CCNC(=O)c1cccn2c(C(F)(F)F)nnc12 [Roche-Dataset for PDE10A, Compound 298] — 0.28 log units higher, 7.06
- CCN(C)C(=O)c1ncccc1NC(=O)c1nc(C2CC2)cnc1Nc1cncnc1 [US8703768, 199] — 1.45 log units higher, 8.23
- COCCNC(=O)c1nc(C2CC2)cnc1Nc1cncnc1 [Roche-Dataset for PDE10A, Compound 946] — 1.19 log units lower, 5.59
- Cn1cc(Br)c(C(=O)Nc2cc(-c3ccccn3)nn2C)n1 [Roche-Dataset for PDE10A, Compound 934] — 0.69 log units lower, 6.09
- O=C(Nc1cccc(C(=O)N2CCOCC2)n1)c1nc(C2CC2)cnc1Nc1cncnc1 [Roche-Dataset for PDE10A, Compound 920] — 1.35 log units higher, 8.13
- Cn1ncc(C(=O)N2CCOCC2)c1C(=O)Nc1cc2nc(N3CCCC3)nn2cn1 [Roche-Dataset for PDE10A, Compound 426] — 1.52 log units higher, 8.30
- Cn1nc(N2CCCC2)nc1CCc1nc2cnc(C#N)cn2n1 [Roche-Dataset for PDE10A, Compound 500] — 1.40 log units lower, 5.38
- Cn1ncc(C(=O)N2CCC2)c1C(=O)Nc1ccn(Cc2ccncc2)n1 [Roche-Dataset for PDE10A, Compound 978] — within 0.2 log units, 6.72
- CCn1nc(C)cc1C(=O)Nc1cc2nc(-c3ccccc3)[nH]c2cc1C(=O)NCCOC [Roche-Dataset for PDE10A, Compound 256] — 1.07 log units higher, 7.85
- Cn1ncc(NC(=O)c2nc(C3CC3)cnc2Nc2cncnc2)c1C(=O)N1CCCO1 [US8703768, 335] — 2.34 log units higher, 9.12
- O=C(c1nc(C2CC2)cnc1Nc1cncnc1)N1CCN(CCc2ccccc2)CC1 [Roche-Dataset for PDE10A, Compound 1015] — 1.78 log units lower, 5.00
- Cn1ncc(C(=O)NCc2cc(C(F)(F)F)ccn2)c1C(=O)Nc1ccn2cc(-c3ccccc3)nc2n1 [Roche-Dataset for PDE10A, Compound 1156] — 1.22 log units lower, 5.56
- O=C(NCc1cncs1)c1nc(C2CC2)cnc1Nc1cncnc1 [Roche-Dataset for PDE10A, Compound 1028] — 0.73 log units lower, 6.05
- Cn1ncc(C(N)=O)c1C(=O)Nc1ccn2nc(-c3ccccc3)nc2c1 [Roche-Dataset for PDE10A, Compound 401] — 1.02 log units higher, 7.80
- O=C(Nc1ccc2nccnc2c1)c1nc(C2CC2)ccc1Nc1cncnc1 [Roche-Dataset for PDE10A, Compound 945] — 0.48 log units higher, 7.26
- Cc1ncc(Br)c2nc(CCc3nc(N4CCCC4)nn3C)nn12 [Roche-Dataset for PDE10A, Compound 658] — 0.69 log units higher, 7.47
- CCCCc1cc(NC(=O)c2c(C(=O)N3CCC3)cnn2C)[nH]n1 [Roche-Dataset for PDE10A, Compound 985] — 1.47 log units lower, 5.31
- CSc1ncc(Br)c(C(=O)Nc2cc(-c3ccccn3)nn2C)n1 [Roche-Dataset for PDE10A, Compound 723] — 1.66 log units lower, 5.12
- CCn1ccc(NC(=O)c2c(C(=O)N3CCC3)cnn2C)n1 [Roche-Dataset for PDE10A, Compound 1121] — 0.90 log units lower, 5.88
- Cc1ncc(C)n2nc(CCc3nc(N4CCCC4)nn3C)nc12 [Roche-Dataset for PDE10A, Compound 626] — 1.86 log units higher, 8.64
- Cn1nc(N2CCCC2)nc1/C=C/c1nc(N2CCCC2)n(C)n1 [Roche-Dataset for PDE10A, Compound 429] — 0.41 log units lower, 6.37
- Cn1ncc(C(=O)N2CCC2)c1C(=O)Nc1ccn2nc(-c3cccc(F)c3)nc2c1 [Roche-Dataset for PDE10A, Compound 140] — 2.19 log units higher, 8.97
- O=C(Nc1ccn(C2CC2)n1)c1nc(C2CC2)ccc1Nc1cncnc1 [Roche-Dataset for PDE10A, Compound 715] — 0.81 log units higher, 7.59
- COc1cnc(C)n2c(CCc3nc(N4CCCC4)nn3C)nnc12 [Roche-Dataset for PDE10A, Compound 633] — 1.40 log units lower, 5.38
- COCCOc1ccc(NC(=O)c2nc(C3CC3)cnc2Nc2cncnc2)c(C(=O)NCC(C)(C)O)c1 [US8703768, 213] — 2.35 log units higher, 9.13
- CC(=O)N(C)c1cccc(NC(=O)c2nc(C3CC3)cnc2Nc2cncnc2)c1 [Roche-Dataset for PDE10A, Compound 821] — within 0.2 log units, 6.87
- COc1ccc2c(c1)c(=O)n(C)c1c(C)nc(-c3ccccc3Cl)n21 [Roche-Dataset for PDE10A, Compound 965] — 1.33 log units higher, 8.11
